Our source for the Kd values is PMC10987503, “Biomimetic NIR-II fluorescent proteins created from chemogenic protein-seeking dyes for multicolor deep-tissue bioimaging” (Nature Communications, 2024).

Experiment [1] deals with T1, human serum albumin (HSA) (Homo sapiens, UniProt P02768).
T1 construct: gene ALB; full HSA; recombinant domain III (DIII) also measured
Description: BLI; also HRMS, SDS-PAGE and proteomics of the covalent adduct. Format: binding. On the technique in general: Biolayer interferometry detects binding as a change in optical thickness at a sensor tip.

Experiment [2] has as its target T1, human serum albumin (HSA). The experiment can be described thus: BLI; also HRMS ([…] covalent binding) and SDS-PAGE.
Experiment [3] concerns the target T1, human serum albumin (HSA). The experiment can be described thus: BLI; also HRMS ([…] covalent binding) and SDS-PAGE. The source holds these as a separate data set.

T1 sequence (P02768 25-609): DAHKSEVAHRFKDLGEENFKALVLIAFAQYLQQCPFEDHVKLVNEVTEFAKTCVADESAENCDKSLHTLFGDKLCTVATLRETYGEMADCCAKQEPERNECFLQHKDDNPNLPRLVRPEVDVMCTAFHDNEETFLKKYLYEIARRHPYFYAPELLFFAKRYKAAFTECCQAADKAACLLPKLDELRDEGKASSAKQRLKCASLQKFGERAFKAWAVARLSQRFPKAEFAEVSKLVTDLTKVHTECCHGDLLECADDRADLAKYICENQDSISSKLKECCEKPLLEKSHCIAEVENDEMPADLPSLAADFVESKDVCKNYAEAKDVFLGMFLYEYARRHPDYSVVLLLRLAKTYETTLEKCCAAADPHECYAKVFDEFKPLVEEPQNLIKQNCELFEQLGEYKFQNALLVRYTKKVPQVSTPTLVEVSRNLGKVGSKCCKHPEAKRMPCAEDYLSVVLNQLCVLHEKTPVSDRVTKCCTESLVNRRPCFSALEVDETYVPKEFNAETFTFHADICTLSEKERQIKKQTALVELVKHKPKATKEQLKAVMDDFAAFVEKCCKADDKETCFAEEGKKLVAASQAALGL

Take `O=C(O)CCCCCn1/c(=C/C=C2\CCCC(/C=C/C3=[N+](CCCCCC(=O)O)c4cccc5cccc3c45)=C2Cl)c2cccc3cccc1c32` [CO-1080]: the Kd in experiment [1] was around 2.13 nM. In the case of `CCn1/c(=C/C=C2\CCCC(/C=C/C3=[N+](CC)c4cccc5cccc3c45)=C2Cl)c2cccc3cccc1c32` [Et-1080], in experiment [2], the Kd was around 14.5 nM. As to `O=S(=O)(O)CCCCn1/c(=C/C=C2\CCCC(/C=C/C3=[N+](CCCCS(=O)(=O)O)c4cccc5cccc3c45)=C2Cl)c2cccc3cccc1c32` [FD-1080], in experiment [3], the Kd is around 82.6 nM.

One may read the Kd as the free concentration of one partner at which half of the binding sites on the other are occupied at equilibrium, for simple one-to-one binding. A high value points to a looser complex.
